The supplement of paper PMC10307832

Tests used:
Experiment in all cases: relative viability (nuclei count vs DMSO), 5 days (fraction); higher = more cells survive
[1] = compound: COc1cc2nccc(Oc3ccc(NC(=O)C4(C(=O)Nc5ccc(F)cc5)CC4)cc3)c2cc1OC [Cabozantinib] + C[C@@H](Oc1cc(-c2cnn(C3CCNCC3)c2)cnc1N)c1c(Cl)ccc(F)c1Cl [Crizotinib] (partner 1 µM)
Outline: (§1)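 Dosing by pin tool came one day after lung cancer cell lines were seeded in 1536-well plates, using either one drug or a fixed anchor-drug dose plus five library-drug doses (not always all listed) in √10 steps. After 5 days, nuclei were counted on 4× images. Relative viability is treated-well nuclei count divided by vehicle-well nuclei count, and values are medians of duplicate plates.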

Zosuquidar + Luminespib = compound: O[C@@H](COc1cccc2ncccc12)CN1CCN([C@@H]2c3ccccc3[C@@H]3[C@H](c4ccccc42)C3(F)F)CC1 [Zosuquidar] + CCNC(=O)c1noc(-c2cc(C(C)C)c(O)cc2O)c1-c1ccc(CN2CCOCC2)cc1 [Luminespib] (partner 0.01 µM)
Outline: as §1

Zosuquidar + Pemetrexed = compound: O[C@@H](COc1cccc2ncccc12)CN1CCN([C@@H]2c3ccccc3[C@@H]3[C@H](c4ccccc42)C3(F)F)CC1 [Zosuquidar] + Nc1nc2[nH]cc(CCc3ccc(C(=O)N[C@@H](CCC(=O)O)C(=O)O)cc3)c2c(=O)[nH]1 [Pemetrexed] (partner 0.2 µM)
Outline: as §1

Zosuquidar + Crizotinib = compound: O[C@@H](COc1cccc2ncccc12)CN1CCN([C@@H]2c3ccccc3[C@@H]3[C@H](c4ccccc42)C3(F)F)CC1 [Zosuquidar] + C[C@@H](Oc1cc(-c2cnn(C3CCNCC3)c2)cnc1N)c1c(Cl)ccc(F)c1Cl [Crizotinib] (partner 1 µM)
Outline: as §1

Cell Line | relative viability ([1]; first compound 0.02 µM) | relative viability ([1]; first compound 0.06325 µM) | relative viability ([1]; first compound 0.2 µM) | relative viability ([1]; first compound 0.6325 µM) | relative viability ([1]; first compound 2 µM) | relative viability (Zosuquidar + Luminespib; first compound 0.01 µM) | relative viability (Zosuquidar + Luminespib; first compound 0.03162 µM) | relative viability (Zosuquidar + Luminespib; first compound 0.1 µM) | relative viability (Zosuquidar + Luminespib; first compound 0.3162 µM) | relative viability (Zosuquidar + Luminespib; first compound 1 µM) | relative viability (Zosuquidar + Pemetrexed; first compound 0.01 µM) | relative viability (Zosuquidar + Pemetrexed; first compound 0.03162 µM) | relative viability (Zosuquidar + Pemetrexed; first compound 0.1 µM) | relative viability (Zosuquidar + Pemetrexed; first compound 0.3162 µM) | relative viability (Zosuquidar + Pemetrexed; first compound 1 µM) | relative viability (Zosuquidar + Crizotinib; first compound 0.01 µM) | relative viability (Zosuquidar + Crizotinib; first compound 0.03162 µM) | relative viability (Zosuquidar + Crizotinib; first compound 0.1 µM) | relative viability (Zosuquidar + Crizotinib; first compound 0.3162 µM) | relative viability (Zosuquidar + Crizotinib; first compound 1 µM)
NCI-H2405 | 0.933 | 0.862 | 0.872 | 0.873 | 0.895 | 0.671 | 0.687 | 0.589 | 0.654 | 0.824 | 1.08 | 0.914 | 0.956 | 1.2 | 0.23 | 0.889 | 0.82 | 0.757 | 0.819 | 0.825
NCI-H3122 | 0.272 | 0.301 | 0.271 | 0.297 | 0.309 | 0.095 | 0.0891 | 0.0947 | 0.0965 | 0.0865 | 0.19 | 0.188 | 0.192 | 0.19 | 0.204 | 0.271 | 0.274 | 0.24 | 0.275 | 0.252
PC-3 [JPC-3] | 1.07 | 1.1 | – | 0.919 | 0.967 | 0.697 | 0.647 | 0.647 | 0.658 | 0.75 | 1.34 | 1.04 | 0.873 | 1.1 | 0.366 | 0.861 | 0.981 | 0.878 | 0.964 | 0.946
PC-14 | 0.983 | 0.911 | – | 0.894 | 0.788 | 0.129 | – | 0.135 | 0.135 | 0.124 | 0.119 | 0.147 | 0.134 | 0.128 | 0.142 | 0.837 | 1.02 | 0.801 | 0.938 | 0.759
RERF-LC-KJ | 0.868 | 0.895 | 0.917 | 0.802 | 0.855 | 1.28 | 1.11 | 1.29 | 1.34 | 1.19 | 0.456 | 0.459 | 0.478 | 0.518 | 0.467 | 0.81 | 0.799 | 0.824 | 0.873 | 0.806
SK-LU-1 | – | 0.941 | 0.772 | 0.872 | 0.857 | 0.228 | 0.201 | 0.177 | 0.204 | 0.219 | 0.975 | 0.795 | 1.06 | 1.03 | 0.962 | 0.974 | 0.981 | 1.1 | 0.932 | 0.911
SK-MES-1 | 1.13 | 1.14 | 1.02 | 1.03 | 0.825 | 0.72 | 0.732 | 0.732 | 0.881 | 0.938 | 0.957 | 0.952 | 0.85 | 1.07 | 1.04 | 0.977 | 0.99 | 0.955 | 1.03 | 1.02
SW 1573 | 0.927 | 0.873 | 0.948 | 0.822 | 0.671 | 0.281 | 0.287 | 0.287 | 0.275 | 0.355 | 0.781 | 0.751 | 0.952 | 0.941 | 0.786 | 0.873 | 0.728 | 0.791 | 0.775 | 0.833
